Source: publication PMC9779727, “Identification of Novel Artemisinin Hybrids Induce Apoptosis and Ferroptosis in MCF-7 Cells” (International Journal of Molecular Sciences, 2022)

Experiments:
MCF-7 cells [1] = test: Lipid peroxidation (MDA) detection; assay type: cell-based, human; conditions: MCF-7
Source text: (§1) We also determined the effect of A8 on the expression of GSH and MDA (lipid peroxidation).
(§2) Lipid peroxidation assay kit (Beyotime, Shanghai, China) was used to detect malonaldehyde (MDA), together with GSH level assay, present in samples, as per the manufacturer’s instruction with slight modifications.

[2] = tested on: breast cancer MDA-MB-231 cells; test: MTT antiproliferation assay, MDA-MB-231; assay type: cell-based, human; conditions: 48 h, means ± SD, n = 3
Source text: The target hybrids A1–A15 were screened for their antiproliferation activities against five human cancer cell lines (lung cancer A549 cells, breast cancer MCF-7 and MDA-MB-231 cells, colon cancer HCT116 cells and ovarian cancer SK-OV-3 cells) in vitro by the standard MTT method, and 5-fluorouracil (5-FU) and ART were coassayed as controls. […] Therefore, the most promising hybrid, A8, was chosen for further exploration of the preliminary mechanism of MCF-7 cell antiproliferation.
Cytotoxicity of test compounds against five different tumor cell lines were evaluated using an MTT assay in vitro. Cells were seeded into 96-well plates at a density of 5 × 10^4 cells per well and stabilized at 37 °C with 5% CO2 for 24 h. Compounds A1–A15, ART and 5-FU were added to each well at various concentrations and then the cells were incubated for 48 h. The MTT solution (100 μL 0.5 mg/mL^−1) was added to each well, and the cells were incubated for another 4 h. Then, 150 μL DMSO was added to each well and the absorbance of samples was measured at 492 nm. The IC50 values were calculated according to Logit method after getting the inhibitory rate.

MCF-7 cells [3] = test: TUNEL staining; assay type: cell-based, human; conditions: MCF-7, varying concentrations
Experimental: To investigate whether hybrid A8 exerts an antitumor effect on MCF-7 cells by inducing apoptosis, an annexin V-FITC/PI binding assay was performed. MCF-7 cells were treated with vehicle or various concentrations (2.5, 5 and 10 μM) of hybrid A8 for 48 h and were then stained with FITC-annexin V and propidium iodide (PI). The percentages of apoptotic MCF-7 cells were determined by flow cytometry. A8-induced apoptosis in a dose-dependent manner. The percentages of total apoptotic cells (Q1-UR + Q1-LR) were 17.99% (2.5 μM), 35.98% (5 μM) and 48.65% (10 μM). […] In addition, obvious changes in cell morphology were also observed.
The slides were immersed in 4% paraformaldehyde (pH 7.4) for 25 min at room temperature and then washed with PBS 3 times. The cells were immersed in 0.1% Triton X-100 solution prepared with PBS for 10 min (operation on ice) and then washed twice with PBS. Dilute 5 × equilibration buffer with deionized water and 100 μL 1 × equilibration buffer was added to each climbing tablet to cover the sample area to be tested, then incubated at room temperature for 15 min. […] The water-absorbent paper was used to absorb the liquid on the climbing sheet, and the sealing liquid containing anti fluorescence quenching agent was used to seal the film, and then the images were observed and collected under the fluorescence microscope.

CYP2C19 = target: T1, CYP2C19 (Homo sapiens, UniProt P33261); test: CYPs inhibition assay, CYP2C19; assay type: in vitro ADME; conditions: human liver microsomes
T1 construct: from tissue; host or cells: human liver microsomes
Experimental: Finally, we evaluated the interaction between the hybrid A8 and five major metabolic enzymes (CYP1A2, CYP2C9, CYP2C19, CYP2D6 and CYP3A4) in the human body. […] It is also one of the directions for our further transformation and optimization.
Cytochrome P450 inhibition was evaluated in human liver microsomes (0.253 mg/mL) using five […] (CYP1A2, α-Naphthoflavone; CYP2C9, Sulfaphenazole; CYP2C19, Benzylnirvanol; CYP2D6, Quinidine; and CYP3A4, Ketoconazole.) in the presence of compound A8 (10 μM). After preincubation for 10 min at 37 °C, an NADPH-regenerating system was added. After the mixed system was incubated for 15 min at 37 °C, the reaction was stopped by adding 400 μL of cold stop solution (200 ng/mL tolbutamide and 200 ng/mL labetalol in acetonitrile). Then, the mixture was centrifuged, and the supernatant was analyzed by LC-MS/MS.

Bcl-2 = test: Western blotting, Bcl-2 expression; assay type: cell-based, human; conditions: MCF-7, 0, 2.5, 5 and 10 μM, 48 h, GAPDH internal control
Experimental: Based on the JC-1 staining results, we further analyzed the expression of proteins related to apoptosis using a Western blotting assay with GAPDH as an internal control. […] Then, an excess of cytochrome C can enhance caspase-3 activation to stimulate apoptosis.
(§3) MCF-7 cells were seeded at a density of 4 × 10^5 cells per well and treated with various concentrations of compound A8 (0, 2.5, 5 and 10 μM) for 48 h. After this, cells were collected and washed twice with ice-cold DPBS. The pellets were resuspended in a total protein extraction buffer (20 mM HEPES, 350 mM NaCl, 20% glycerol, 1% NP-40, 1 mM MgCl2, 0.5 mM EDTA, 0.1 mM EGTA, 0.1 mM DTT, 0.1 mM PMSF) containing a protease inhibitor cocktail and incubated on ice for 30 min with intermittent mixing. The protein concentration was measured using the Bradford reagent (Bio-Rad Laboratories Inc., Hercules, CA, USA). An equal amount (20 μg) of protein was loaded on 10% polyacrylamide gels and transferred to a nitrocellulose membrane. After blocking with 5% skimmed milk, the membrane was incubated at 4 °C overnight with specific primary antibodies. The membrane was washed and incubated at room temperature for 1 h with secondary antibodies conjugated with horseradish peroxidase (HRP). Finally, the immunoblot was developed for visualization using a chemiluminescence kit. […]

MCF-7 cells [4] = test: GSH level detection; assay type: cell-based, human
Source text: as §1, §2

GPX4 = test: Western blotting, GPX4 expression; assay type: cell-based, human; conditions: MCF-7, 0, 2.5, 5 and 10 μM, 48 h
Experimental: We examined the effect of A8 on the expression of GPX4 as well, which is vital in preventing ferroptosis. […] Thus, we concluded that A8 induced the accumulation of ROS and lipid peroxidation and suppressed GSH levels and the expression of GPX4, thereby leading to the induction of ferroptosis.
as §3

T1 sequence (P33261 whole entry): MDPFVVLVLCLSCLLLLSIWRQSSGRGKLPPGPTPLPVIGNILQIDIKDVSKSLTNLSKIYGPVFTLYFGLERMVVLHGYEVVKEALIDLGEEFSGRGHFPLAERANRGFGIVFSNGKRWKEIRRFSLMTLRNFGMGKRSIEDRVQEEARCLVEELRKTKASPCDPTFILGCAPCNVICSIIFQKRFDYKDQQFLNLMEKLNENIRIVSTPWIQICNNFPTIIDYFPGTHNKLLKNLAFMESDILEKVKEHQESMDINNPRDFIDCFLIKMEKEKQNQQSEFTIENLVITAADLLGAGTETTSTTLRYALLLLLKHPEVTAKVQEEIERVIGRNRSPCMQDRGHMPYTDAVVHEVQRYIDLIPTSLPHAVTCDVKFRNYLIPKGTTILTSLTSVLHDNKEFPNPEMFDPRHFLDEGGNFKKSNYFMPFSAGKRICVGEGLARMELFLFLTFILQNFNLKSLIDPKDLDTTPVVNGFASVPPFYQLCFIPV

For `CC1CCC2C(C)C(OC(=O)CCC(=O)NCc3nnc(Nc4ccc(F)cc4F)o3)OC3OC4(C)CCC1C32OO4` (stereo not shown) [A8], which “MDA level (in words)” value (MCF-7 cells [1]) is on record?
The value was “increased at higher concentrations”.

What about the IC50 [2] of the same compound?
The IC50 was 5.27 ± 0.02 µM.

What about the “number of cells that emitted red fluorescence (apoptotic cells), TUNEL (in words)” value (MCF-7 cells [3]) of the same compound?
Its value is “increased as the administration concentration increased”.

What about the “Inhibition at 10 μM (%) CYP2C19” value (CYP2C19) of the same compound?
The value was 12.3%.

What about the “expression of Bcl-2 (in words)” value (Bcl-2) of the same compound?
The value was “significantly downregulated”.

And the “GSH level (in words)” value (MCF-7 cells [4])?
Its value is “decreased significantly”.

What about the “GPX4 expression (in words)” value (GPX4) of the same compound?
The value was “dose-dependent inhibition of GPX4 expression”.
